Reference: US9428500B2, “Alpha-carbolines for the treatment of cancer” (UNIVERSITA' DEGLI STUDI DI MILANO—BICOCCA, priority 2012, dated 2016)
Read-outs that look alike come from different tables or passages of the source.

Experiments:
[1] = test system: BaF3 cells transformed with the oncogenic fusion protein NPM/ALK; assay: cells; conditions: read-out: BaF3 NPM/ALK WT IC50
[2] = test system: parental untransformed BaF3 cells; assay: Tritiated thymidine uptake cell proliferation assay, parental BaF3; format: cell-based; conditions: Mus musculus, BaF3; 3H-thymidine uptake, 72 h, medium with IL-3
[3] = biological target: wild-type ALK kinase (rALK) (Homo sapiens (Human), UniProt Q9UM73); assay: ELISA-based in vitro kinase assay, wild-type ALK; format: biochemical; conditions: recombinant ALK, 0.3 mM ATP; read-out: ELISA ALK WT IC50
Sequence of wild-type ALK kinase (rALK) (Q9UM73 19-1620): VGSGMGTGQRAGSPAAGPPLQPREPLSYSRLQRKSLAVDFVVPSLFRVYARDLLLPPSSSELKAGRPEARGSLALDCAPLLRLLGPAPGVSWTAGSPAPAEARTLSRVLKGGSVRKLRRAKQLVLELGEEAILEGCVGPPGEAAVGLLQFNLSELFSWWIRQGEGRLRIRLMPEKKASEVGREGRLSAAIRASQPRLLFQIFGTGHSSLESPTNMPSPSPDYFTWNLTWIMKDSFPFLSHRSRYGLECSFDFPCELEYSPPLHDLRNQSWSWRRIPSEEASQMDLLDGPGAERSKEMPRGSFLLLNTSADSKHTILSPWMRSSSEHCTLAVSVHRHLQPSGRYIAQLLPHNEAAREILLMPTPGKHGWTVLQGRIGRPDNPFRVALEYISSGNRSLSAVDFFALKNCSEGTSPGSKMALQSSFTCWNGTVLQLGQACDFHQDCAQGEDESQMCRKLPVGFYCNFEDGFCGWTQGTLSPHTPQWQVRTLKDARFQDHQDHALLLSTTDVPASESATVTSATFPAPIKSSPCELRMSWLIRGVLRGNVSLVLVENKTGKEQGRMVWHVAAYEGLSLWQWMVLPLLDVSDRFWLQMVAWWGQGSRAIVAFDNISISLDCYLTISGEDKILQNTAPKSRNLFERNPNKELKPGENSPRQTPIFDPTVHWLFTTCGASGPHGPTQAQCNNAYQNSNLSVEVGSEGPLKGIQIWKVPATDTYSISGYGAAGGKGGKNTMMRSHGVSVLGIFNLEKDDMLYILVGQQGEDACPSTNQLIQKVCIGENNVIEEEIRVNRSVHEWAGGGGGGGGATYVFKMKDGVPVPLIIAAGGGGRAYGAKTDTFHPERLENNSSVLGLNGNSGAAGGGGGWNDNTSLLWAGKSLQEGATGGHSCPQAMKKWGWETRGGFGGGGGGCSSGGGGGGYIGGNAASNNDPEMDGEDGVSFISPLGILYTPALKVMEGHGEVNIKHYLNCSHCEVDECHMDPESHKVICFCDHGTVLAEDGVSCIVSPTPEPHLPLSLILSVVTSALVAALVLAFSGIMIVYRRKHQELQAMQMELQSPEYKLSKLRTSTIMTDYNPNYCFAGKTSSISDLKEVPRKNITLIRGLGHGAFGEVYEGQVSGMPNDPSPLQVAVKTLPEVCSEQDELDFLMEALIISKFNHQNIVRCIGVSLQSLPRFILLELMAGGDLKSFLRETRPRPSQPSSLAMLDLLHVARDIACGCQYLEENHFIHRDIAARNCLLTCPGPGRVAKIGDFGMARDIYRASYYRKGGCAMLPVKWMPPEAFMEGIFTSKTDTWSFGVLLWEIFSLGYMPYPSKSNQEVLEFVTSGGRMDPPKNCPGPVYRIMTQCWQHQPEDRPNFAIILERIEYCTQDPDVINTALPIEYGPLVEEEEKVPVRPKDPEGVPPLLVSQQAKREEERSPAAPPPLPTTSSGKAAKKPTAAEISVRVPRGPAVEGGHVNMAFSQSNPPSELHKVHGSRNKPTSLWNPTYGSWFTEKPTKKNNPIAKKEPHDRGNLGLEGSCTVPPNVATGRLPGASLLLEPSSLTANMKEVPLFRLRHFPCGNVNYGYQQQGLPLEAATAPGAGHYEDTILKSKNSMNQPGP
Procedure: Recombinant 3C protease was used to remove the GST tag. Purified ALK was used to screen inhibitors in the ELISA-based kinase assay, as follows: Nunc-Immuno 96-well plates were incubated overnight at 30° C. with coating solution containing 2 μg of a specific ALK peptide substrate ([…]) in PBS. Wells were then washed with 200 μL of wash buffer (PBS-Tween 0.05%) and incubated with 4% BSA in PBS for at least 2 h at 30° C. […] For inhibitor testing the reaction mix was preincubated with inhibitor or vehicle for 10 min at room temperature before transferring to the ELISA plate. After the reaction, the wells were washed 5 times with 200 uL of wash buffer. Phosphorylated peptide was detected using 100 μL/well of a mouse monoclonal anti-phosphotyrosine antibody (clone 4G10 UpstateBiotech Ltd) diluted 1:2000 in PBS+4% BSA. After 30 min incubation at room temperature the antibody was removed and wells were washed as described above. 100 μL of a secondary antibody (anti-mouse IgG, Horseradish Peroxidase linked whole antibody, Amersham Pharmacia Biotech) diluted 1:1000 in PBS+4% BSA was added to each well and the plate was incubated again for 30 min at room temperature before washing as above. The plate was developed using 100 μL/well TMB Substrate Solution (Pierce) and the reaction was stopped by adding an equal volume of 1M H2SO4. Finally, the absorbance was read at 450 nm using an ELISA plate reader (Bio-Rad).

[4] = test system: BaF3 cells transformed with the oncogenic fusion protein NPM/ALK

| Structure (SMILES) | IC50 [2] [nM] | further results |
| --- | --- | --- |
| CN1CCN(c2ccc(-c3ccc4[nH]c5nccc(-c6ccc(N7CCN(C)CC7)cc6)c5c4c3)cc2)CC1 [Example 20, 4,6-Bis-[4-(4-methylpiperazin-1-yl)-phenyl]-9H-pyrido[2,3-b]indole] | 3600 | IC50 [1]: 520 nM; IC50 [3]: 10000 nM; Selectivity Index (WT) [4]: 7 |
| C/C(=C\c1ccccc1)c1ccnc2[nH]c3ccc(-c4ccc(N5CCN(C)CC5)cc4)cc3c12 [Example 28, (E)-6-(4-(4-methylpiperazin-1-yl)phenyl)-4-(1-phenylprop-1-en-2-yl)-9H-pyrido[2,3-b]indole] | 800 | – |
| CN1CCN(c2ccc(-c3ccc4[nH]c5nccc(/C=C/c6ccccc6NS(C)(=O)=O)c5c4c3)cc2)CC1 [Example 29, N-[(E)-2-(2-{6-[4-(4-Methylpiperazin-1-yl)-phenyl]-9H-pyrido[2,3-b]indol-4-yl}-vinyl)-phenyl]-methanesulfonamide] | 680 | – |
| CC/C=C(\c1ccccc1)c1ccnc2[nH]c3ccc(-c4ccc(N5CCN(C)CC5)cc4)cc3c12 [Example 30, (E)-6-[4-(4-Methylpiperazin-1-yl)-phenyl]-4-(1-phenyl-but-1-enyl)-9H-pyrido[2,3-b]indole] | 220 | – |
| CC(C)[Si](C=Cc1ccnc2[nH]c3ccc(-c4ccc(N5CCN(C)CC5)cc4)cc3c12)(C(C)C)C(C)C [Example 32, (E) and (Z)-6-(4-(4-methylpiperazin-1-yl)phenyl)-4-(2-(triisopropylsilyl)vinyl)-9H-pyrido[2,3-b]indole] | 6900 | – |
| CN1CCN(c2ccc(-c3ccc4[nH]c5nccc(-c6ccc(C(O)c7ccccc7)cc6)c5c4c3)cc2)CC1 (stereo not drawn) [Example 33, (4-{6-[4-(4-Methylpiperazin-1-yl)-phenyl]-9H-pyrido[2,3-b]indol-4-yl}-phenyl)-phenyl-methanol] | 1000 | – |
| CN1CCN(c2ccc(-c3ccc4[nH]c5nccc(Nc6ccccc6[N+](=O)[O-])c5c4c3)cc2)CC1 [Example 34, {6-[4-(4-Methylpiperazin-1-yl)-phenyl]-9H-pyrido[2,3-b]indol-4-yl}-(2-nitro-phenyl)-amine] | 860 | – |
| CN1CCN(c2ccc(-c3ccc4[nH]c5nccc(Nc6cccc([N+](=O)[O-])c6)c5c4c3)cc2)CC1 [Example 35, 6-(4-(4-Methylpiperazin-1-yl)phenyl)-N-(3-nitrophenyl)-9H-pyrido[2,3-b]indol-4-amine] | 480 | – |
| CN1CCC(N2CCN(c3ccc(-c4ccc5[nH]c6nccc(Nc7ccccc7[N+](=O)[O-])c6c5c4)cc3)CC2)CC1 [Example 36, 6-(4-(4-(1-Methylpiperidin-4-yl)piperazin-1-yl)phenyl)-N-(2-nitrophenyl)-9H-pyrido[2,3-b]indol-4-amine] | 7100 | – |
| CN1CCN(c2ccc(-c3ccc4[nH]c5nccc(C#Cc6ccccc6)c5c4c3)cc2)CC1 [Example 37, 6-[4-(4-Methylpiperazin-1-yl)-phenyl]-4-phenylethynyl-9H-pyrido[2,3-b]indole] | 4400 | – |
| COc1ccccc1C#Cc1ccnc2[nH]c3ccc(-c4ccc(N5CCN(C)CC5)cc4)cc3c12 [Example 38, 4-(2-Methoxyphenylethynyl)-6-[4-(4-methylpiperazin-1-yl)-phenyl]-9H-pyrido[2,3-b]indole] | 1500 | – |
| CN1CCN(c2ccc(-c3ccc4[nH]c5nccc(C#Cc6ccccc6C(F)(F)F)c5c4c3)cc2)CC1 [Example 39, 6-[4-(4-Methylpiperazin-1-yl)-phenyl]-4-(2-trifluoromethyl-phenylethynyl)-9H-pyrido[2,3-b]indole] | 1200 | – |
| CN1CCN(c2ccc(-c3ccc4[nH]c5nccc(C#Cc6ccc(F)cc6)c5c4c3)cc2)CC1 [Example 40, 4-((4-Fluorophenyl)ethynyl)-6-[4-(4-methylpiperazin-1-yl)-phenyl]-9H-pyrido[2,3-b]indole] | 920 | – |
| CN1CCN(c2ccc(-c3ccc4[nH]c5nccc(C#Cc6ccccc6F)c5c4c3)cc2)CC1 [Example 41, 4-((2-Fluorophenyl)ethynyl)-6-[4-(4-methylpiperazin-1-yl)-phenyl]-9H-pyrido[2,3-b]indole] | 2500 | – |
| CN1CCN(c2ccc(-c3ccc4[nH]c5nccc(C#Cc6ccccc6Cl)c5c4c3)cc2)CC1 [Example 42, 4-((2-Chlorophenyl)ethynyl)-6-[4-(4-methylpiperazin-1-yl)-phenyl]-9H-pyrido[2,3-b]indole] | 2100 | – |
| CC(C)[Si](C#Cc1ccnc2[nH]c3ccc(-c4ccc(N5CCN(C)CC5)cc4)cc3c12)(C(C)C)C(C)C [Example 43, 6-(4-(4-Methylpiperazin-1-yl)phenyl)-4-((triisopropylsilyl)ethynyl)-9H-pyrido[2,3-b]indole] | 3400 | – |
| C#Cc1ccnc2[nH]c3ccc(-c4ccc(N5CCN(C)CC5)cc4)cc3c12 [Example 44, 4-Ethynyl-6-(4-(4-methylpiperazin-1-yl)phenyl)-9H-pyrido[2,3-b]indole] | 350 | IC50 [1]: 170 nM; IC50 [3]: 29000 nM; Selectivity Index (WT) [4]: 2 |
| COc1ccccc1C#Cc1ccnc2c1c1cc(-c3ccc(N4CCN(C)CC4)cc3)ccc1n2C [Example 45, 4-(2-Methoxyphenylethynyl)-9-methyl-6-[4-(4-methylpiperazin-1-yl)-phenyl]-9H-pyrido[2,3-b]indole] | 2100 | IC50 [1]: 1100 nM; IC50 [3]: 3800 nM; Selectivity Index (WT) ([4]; BaF3 parental vs NPM/ALK WT): 2 |
| COc1ccc(Sc2ccnc3[nH]c4ccc(-c5ccc(N6CCN(C)CC6)cc5)cc4c23)cc1 [Example 46, 4-(4-Methoxy-phenylsulfanyl)-6-[4-(4-methyl-piperazin-1-yl)-phenyl]-9H-pyrido[2,3-b]indole] | – | IC50 [3]: 5700 nM |
| Cc1ccc(Cn2cc(-c3ccnc4[nH]c5ccc(-c6ccc(N7CCN(C)CC7)cc6)cc5c34)nn2)cc1 [Example 47, 4-(1-(4-methylbenzyl)-1H-1,2,3-triazol-4-yl)-6-(4-(4-methylpiperazin-1-yl)phenyl)-9H-pyrido[2,3-b]indole] | – | IC50 [3]: 6800 nM |
| CN1CCN(c2ccc(-c3ccc4[nH]c5nccc(-c6ccc(Oc7ccccc7)cc6)c5c4c3)cc2)CC1 [Example 48, 6-(4-(4-methylpiperazin-1-yl)phenyl)-4-(4-phenoxyphenyl)-9H-pyrido[2,3-b]indole] | 2100 | – |
| CN1CCN(c2ccc(-c3ccc4[nH]c5nccc(-c6ccc(-c7ccc(F)cc7)nc6)c5c4c3)cc2)CC1 [Example 49, 4-(6-(4-fluorophenyl)pyridin-3-yl)-6-(4-(4-methylpiperazin-1-yl)phenyl)-9H-pyrido[2,3-b]indole] | 3200 | – |
| COc1cc(-c2ccnc3[nH]c4ccc(-c5ccc(N6CCN(C)CC6)cc5)cc4c23)c(OC)cc1C(=O)c1ccccc1 [Example 50, (2,5-dimethoxy-4-(6-(4-(4-methylpiperazin-1-yl)phenyl)-9H-pyrido[2,3-b]indol-4-yl)phenyl)(phenyl)methanone] | 1100 | – |
| COc1cc(C(=O)c2ccccc2)c(O)cc1-c1ccnc2[nH]c3ccc(-c4ccc(N5CCN(C)CC5)cc4)cc3c12 [Example 51, (2-hydroxy-5-methoxy-4-(6-(4-(4-methylpiperazin-1-yl)phenyl)-9H-pyrido[2,3-b]indol-4-yl)phenyl)(phenyl)methanone] | 720 | – |
| COc1cc(-c2ccnc3[nH]c4ccc(-c5ccc(N6CCN(C)CC6)cc5)cc4c23)c(OC)cc1Cc1ccccc1 [Example 52, 4-(4-benzyl-2,5-dimethoxyphenyl)-6-(4-(4-methylpiperazin-1-yl)phenyl)-9H-pyrido[2,3-b]indole] | 810 | – |
| COc1cc(Cc2ccccc2)c(O)cc1-c1ccnc2[nH]c3ccc(-c4ccc(N5CCN(C)CC5)cc4)cc3c12 [Example 53, 2-benzyl-4-methoxy-5-(6-(4-(4-methylpiperazin-1-yl)phenyl)-9H-pyrido[2,3-b]indol-4-yl)phenol] | 1800 | – |
| CN1CCN(c2ccc(-c3ccc4[nH]c5nccc(-c6ccc(Cc7ccccc7)cc6C(F)(F)F)c5c4c3)cc2)CC1 [Example 55, 4-(4-benzyl-2-(trifluoromethyl)phenyl)-6-(4-(4-methylpiperazin-1-yl)phenyl)-9H-pyrido[2,3-b]indole] | 5100 | – |
| COc1cc(C(O)c2ccccc2)c(OC)cc1-c1ccnc2[nH]c3ccc(-c4ccc(N5CCN(C)CC5)cc4)cc3c12 (stereo not drawn) [Example 57, (2,5-dimethoxy-4-(6-(4-(4-methylpiperazin-1-yl)phenyl)-9H-pyrido[2,3-b]indol-4-yl)phenyl)(phenyl)methanol] | 790 | – |
| CN1CCN(c2ccc(-c3ccc4[nH]c5nccc(N6CCC(Cc7ccccc7)CC6)c5c4c3)cc2)CC1 [Example 58, 4-(4-benzylpiperidin-1-yl)-6-(4-(4-methylpiperazin-1-yl)phenyl)-9H-pyrido[2,3-b]indole] | 3300 | – |
| CN1CCN(c2ccc(-c3ccc4[nH]c5nccc(N6CCN(Cc7ccccc7)CC6)c5c4c3)cc2)CC1 [Example 59, 4-(4-benzylpiperazin-1-yl)-6-(4-(4-methylpiperazin-1-yl)phenyl)-9H-pyrido[2,3-b]indole] | 830 | – |
